From ChEMBL document CHEMBL1649565, “Besifloxacin, a novel fluoroquinolone, has broad-spectrum in vitro activity against aerobic and anaerobic bacteria” (Antimicrob Agents Chemother, 2009)
Converted amounts (≈) assume the structure as drawn. The source made the active and inactive calls. No cut-off for these calls is given here.

Tests used:
[1] = test system: Staphylococcus epidermidis
[2] = test system: Staphylococcus epidermidis; remark: listed apart in the source
[3] = test system: Citrobacter koseri; assay: Antibacterial activity against Citrobacter koseri assessed as percent susceptible isolates by CLSI M7-A7 method; format: functional
[4] = test system: Acinetobacter baumannii; assay: Antibacterial activity against Acinetobacter baumannii by CLSI M7-A7 method; format: functional
[5] = test system: Klebsiella oxytoca; assay: Antibacterial activity against Klebsiella oxytoca assessed as percent susceptible isolates by CLSI M7-A7 method; format: functional
[6] = test system: Klebsiella aerogenes; assay: Antibacterial activity against Enterobacter aerogenes by CLSI M7-A7 method; format: functional
[7] = test system: Proteus mirabilis; assay: Antibacterial activity against Proteus mirabilis assessed as percent susceptible isolates by CLSI M7-A7 method; format: functional
[8] = test system: Enterobacter cloacae; assay: Antibacterial activity against Enterobacter cloacae assessed as percent susceptible isolates by CLSI M7-A7 method; format: functional
[9] = test system: Stenotrophomonas maltophilia; assay: Antibacterial activity against levofloxacin-susceptible Stenotrophomonas maltophilia by CLSI M7-A7 method; format: functional
[10] = test system: Pseudomonas aeruginosa; assay: Antibacterial activity against ciprofloxacin-susceptible Pseudomonas aeruginosa assessed as percent susceptible isolates by CLSI M7-A7 method; format: functional
[11] = test system: Morganella morganii; assay: Antibacterial activity against Morganella morganii by CLSI M7-A7 method; format: functional
[12] = test system: Proteus mirabilis; assay: Antibacterial activity against Proteus mirabilis by CLSI M7-A7 method; format: functional
[13] = test system: Proteus vulgaris; assay: Antibacterial activity against Proteus vulgaris assessed as percent susceptible isolates by CLSI M7-A7 method; format: functional
[14] = test system: Klebsiella oxytoca; assay: Antibacterial activity against Klebsiella oxytoca by CLSI M7-A7 method; format: functional
[15] = test system: Pseudomonas aeruginosa; assay: Antibacterial activity against ciprofloxacin-susceptible Pseudomonas aeruginosa by CLSI M7-A7 method; format: functional
[16] = test system: Acinetobacter calcoaceticus; assay: Antibacterial activity against Acinetobacter calcoaceticus assessed as percent susceptible isolates by CLSI M7-A7 method; format: functional
[17] = test system: Klebsiella pneumoniae; assay: Antibacterial activity against Klebsiella pneumoniae assessed as percent susceptible isolates by CLSI M7-A7 method; format: functional
[18] = test system: Serratia marcescens; assay: Antibacterial activity against Serratia marcescens by CLSI M7-A7 method; format: functional
[19] = test system: Acinetobacter lwoffii; assay: Antibacterial activity against Acinetobacter lwoffii assessed as percent susceptible isolates by CLSI M7-A7 method; format: functional
[20] = test system: Klebsiella aerogenes; assay: Antibacterial activity against Enterobacter aerogenes assessed as percent susceptible isolates by CLSI M7-A7 method; format: functional
[21] = test system: Pseudomonas aeruginosa; assay: Antibacterial activity against non-ciprofloxacin-susceptible Pseudomonas aeruginosa by CLSI M7-A7 method; format: functional
[22] = test system: Morganella morganii; assay: Antibacterial activity against Morganella morganii assessed as percent susceptible isolates by CLSI M7-A7 method; format: functional
[23] = test system: Serratia marcescens; assay: Antibacterial activity against levofloxacin susceptible Serratia marcescens assessed as percent susceptible isolates by CLSI M7-A7 method; format: functional
[24] = test system: Acinetobacter lwoffii; assay: Antibacterial activity against Acinetobacter lwoffii by CLSI M7-A7 method; format: functional
[25] = test system: Stenotrophomonas maltophilia; assay: Antibacterial activity against levofloxacin-susceptible Stenotrophomonas maltophilia assessed as assessed as percent susceptible isolates by CLSI M7-A7 method; format: functional
[26] = test system: Stenotrophomonas maltophilia; assay: Antibacterial activity against non-levofloxacin susceptible Stenotrophomonas maltophilia assessed as percent susceptible isolates by CLSI M7-A7 method; format: functional
[27] = test system: Citrobacter freundii; assay: Antibacterial activity against Citrobacter freundii assessed as percent susceptible isolates by CLSI M7-A7 method; format: functional
[28] = test system: Pseudomonas aeruginosa; assay: Antibacterial activity against non-ciprofloxacin-susceptible Pseudomonas aeruginosa assessed as percent susceptible isolates by CLSI M7-A7 method; format: functional
[29] = test system: Citrobacter koseri; assay: Antibacterial activity against Citrobacter koseri by CLSI M7-A7 method; format: functional
[30] = test system: Acinetobacter calcoaceticus; assay: Antibacterial activity against Acinetobacter calcoaceticus by CLSI M7-A7 method; format: functional
[31] = test system: Proteus vulgaris; assay: Antibacterial activity against Proteus vulgaris by CLSI M7-A7 method; format: functional
[32] = test system: Stenotrophomonas maltophilia; assay: Antibacterial activity against non-levofloxacin susceptible Stenotrophomonas maltophilia by CLSI M7-A7 method; format: functional
[33] = test system: Acinetobacter baumannii; assay: Antibacterial activity against Acinetobacter baumannii assessed as percent susceptible isolates by CLSI M7-A7 method; format: functional
[34] = test system: Enterobacter cloacae; assay: Antibacterial activity against Enterobacter cloacae by CLSI M7-A7 method; format: functional
[35] = test system: Klebsiella pneumoniae; assay: Antibacterial activity against Klebsiella pneumoniae by CLSI M7-A7 method; format: functional
[36] = test system: Citrobacter freundii; assay: Antibacterial activity against Citrobacter freundii by CLSI M7-A7 method; format: functional

## COc1c(N2C[C@@H]3CCCN[C@@H]3C2)c(F)cc2c(=O)c(C(=O)O)cn(C3CC3)c12
[1]
  MIC90: inactive
[2]
  MIC90: inactive

## O=C(O)c1cn(C2CC2)c2cc(N3CCNCC3)c(F)cc2c1=O
[1]
  MIC90: inactive
[2]
  MIC90: inactive

## CC(C)(O/N=C(\C(=O)N[C@@H]1C(=O)N2C(C(=O)[O-])=C(C[n+]3ccccc3)CS[C@H]12)c1csc(N)n1)C(=O)O [CEFTAZIDIME]
[3]
  Activity: 100%
[4]
  MIC50: > 16 µg/mL
  MIC90: > 16 µg/mL
[5]
  Activity: 100%
[6]
  MIC50: 2 µg/mL (≈ 3.66 µM)
  MIC90: > 16 µg/mL
[7]
  Activity: 98%
[8]
  Activity: 70%
[9]
  MIC: 0.5 µg/mL (≈ 0.915 µM)
[10]
  Activity: 93.3%
[11]
  MIC50: 0.12 µg/mL (≈ 0.22 µM)
  MIC90: 16 µg/mL (≈ 29.3 µM)
[12]
  MIC: ≤ 0.03 µg/mL
  MIC50: ≤ 0.03 µg/mL
  MIC90: 0.06 µg/mL (≈ 0.11 µM)
[13]
  Activity: 100%
[14]
  MIC50: 0.12 µg/mL (≈ 0.22 µM)
  MIC90: 0.5 µg/mL (≈ 0.915 µM)
[15]
  MIC50: 2 µg/mL (≈ 3.66 µM)
  MIC90: 8 µg/mL (≈ 14.6 µM)
[16]
  Activity: 63%
[17]
  Activity: 92%
[18]
  MIC50: 0.06 µg/mL (≈ 0.11 µM)
  MIC90: 0.5 µg/mL (≈ 0.915 µM)
[19]
  Activity: 76%
[20]
  Activity: 62%
[21]
  MIC50: 4 µg/mL (≈ 7.32 µM)
  MIC90: > 16 µg/mL
[22]
  Activity: 82.4%
[23]
  Activity: 93%
[24]
  MIC50: 2 µg/mL (≈ 3.66 µM)
  MIC90: > 16 µg/mL
[25]
  Activity: 32.7%
[26]
  Activity: 43.8%
[27]
  Activity: 78%
[28]
  Activity: 57.3%
[29]
  MIC50: 0.12 µg/mL (≈ 0.22 µM)
  MIC90: 0.5 µg/mL (≈ 0.915 µM)
[30]
  MIC50: 4 µg/mL (≈ 7.32 µM)
  MIC90: > 16 µg/mL
[31]
  MIC50: 0.06 µg/mL (≈ 0.11 µM)
  MIC90: 0.12 µg/mL (≈ 0.22 µM)
[32]
  MIC: 0.5 µg/mL (≈ 0.915 µM)
[33]
  Activity: 39.6%
[34]
  MIC50: 0.5 µg/mL (≈ 0.915 µM)
  MIC90: > 16 µg/mL
[35]
  MIC50: 0.12 µg/mL (≈ 0.22 µM)
  MIC90: 1 µg/mL (≈ 1.83 µM)
[36]
  MIC50: 0.25 µg/mL (≈ 0.457 µM)
  MIC90: > 16 µg/mL
